US20170016884A1, “A NOVEL, HIGH-THROUGHPUT, NANOTOPOGRAPHIC PLATFORM FOR SCREENING CELL MIGRATORY BEHAVIOR” (THE JOHNS HOPKINS UNIVERSITY, priority 2014, published 2017)

Legend:
primary human GB cells [1] = assay: cell migration on multi-well nanopatterned platform (time-lapse microscopy); type: cell-based; details: for fraction of cells maintaining slower speeds (≦15 μm/hr): PDGF-exposed
Method: (§1) Cells were cultured in the multi-well, nanopatterned device for approximately 48 hours in the course of each experiment. Prior to plating cells, nanoridged substrata were coated with poly-D-lysine (10 μg ml-1) for 15 minutes and mouse laminin (from 10 to 140 μg ml-1) for 1 hour. These topographically patterned cell substrata, caused cells to align with and move along the direction of the nanoridges. Both prior to, and during experiments cells were maintained at 37° C. and 5% CO2 in Dulbecco's Modified Eagle Medium: Nutrient Mixture F-12 containing 2 mM L-glutamine, with added 50 U mL-1 penicillin, […] streptomycin. Where indicated, media contained 10% fetal bovine serum (Invitrogen) or alternatively, Platelet-Derive Growth Factor-AA (PDGF-AA) (LC Laboratories) at specified concentrations.
Cell migration was observed using time-lapse microscopy (Movies S1-S3). To enable long-term observation, the multi-well, nanopatterned device was mounted onto the stage of a motorized inverted microscope (Olympus IX81) equipped with a Photometrics® Cascade® 512B II CCD camera and temperature and gas controlling environmental chamber. Phase contrast cell images were automatically recorded under 10× objective (NA=0.30) using the SlideBook™ 4.1 Software (Intelligent Imaging Innovations, Denver, Colo.) for 10-15 hours at 10 or 20 minute intervals.
Because cell-cell contact is known to affect the extent of cell spreading and migration, cells were plated at low density (˜4×10^4 cells mL -1) to allow isolated movements. A custom-made MATLAB® script was used allow manual tracking and measurement of cells frame by frame. Analysis was stopped in the event of cell death, division, collision with non-cellular debris, or movement out of the field of view. Area and spindle shape factor of individual cells was measured in each frame, and averaged over the entire duration of the experiment. The spindle shape factor was defined as the ratio of the maximum cell length (long axis) to the maximum cell width in the direction perpendicular to long axis, regardless of the orientation with respect to nanoridge pattern. Averages of cell populations were calculated from at least 60 cells.
Cells movements were tracked by centroid position or by the approximate center of the cell body. Individual cell trajectories were used to calculate the mean squared displacement (MSD) at each interval. Instantaneous speeds of individual cells were calculated from the MSD and the duration of the image acquisition time interval. Average speeds of individual cells were calculated from the total distanced moved throughout the entire cell trajectory and the total time the cell was tracked. Persistence was obtained as previously described, by calculating the ratio of the shortest distance between starting point and end point, divided by the total distanced moved. Alignment to the nanoridge pattern was calculated by dividing the distance moved parallel to the ridges, by the distance moved perpendicular to the ridges. Averages of cell populations were calculated from at least 60 cells.

GB = details: cited from earlier work
PDGFRα = PDGFRα (Homo sapiens, UniProt P16234); details: cited from earlier work
Akt = Akt phosphorylation via immunoblotting; type: cell-based, human; details: FIG. 10B
Method: Total cellular protein was extracted using NE-PER Nuclear and Cytoplasmic Extraction Reagents kit according to the manufacturer's instructions (Thermo Scientific) containing protease (Roche) and phosphatase inhibitor (Thermo). Protein concentration was determined using the Bradford protein quantification method (Biorad Protein Assay, Biorad). SDS-PAGE was performed with 25 μg total cellular protein per lane using 4-12% gradient Tris glycine gels. The primary antibodies used were as follows: anti PDGFR-alpha (1:200; Santa Cruz); phospho-PDGFR alpha (1:1000; Cell Signaling); Akt (1:1000; Cell Signaling);
phospho-Akt (1:1000; Cell Signaling).

human GB cells = assay: mouse intracranial tumor xenograft of human GB cells with PDGF exposure; type: in vivo
Method: All animal protocols were approved by the Johns Hopkins School of Medicine Animal Care and Use Committee. For intracranial xenografts, SCID immnodeficient mice received 100,000 viable cells in 1 μl of DMEM/F12 serum media without growth factors by stereotactic injection into the right striatum. Cells were cultured in DMEM/F12 serum media with EGF/FGF and PDGF-AA ligand for three weeks before injections were performed. Cell viability was determined by trypan blue dye exclusion. Mice were perfused with 4% paraformaldehyde at the indicated times and the brains were removed for histological analysis.

primary human GB cells [2] = assay: cell migration on flat (smooth) substrata; type: cell-based
Method: as §1, with “Prior to plating cells, nanoridged substrata were coated with poly-D-lysine (10 μg ml-1) for 15 minutes and mouse laminin (from 10 to 140 μg ml-1) for 1 hour.” left out
Cell migration was observed using time-lapse microscopy (Movies S1-S3). […] Phase contrast cell images were automatically recorded under 10× objective (NA=0.30) using the SlideBook™ 4.1 Software (Intelligent Imaging Innovations, Denver, Colo.) for 10-15 hours at 10 or 20 minute intervals.
Because cell-cell contact is known to affect the extent of cell spreading and migration, cells were plated at low density (˜4×10^4 cells mL -1) to allow isolated movements. […] Area and spindle shape factor of individual cells was measured in each frame, and averaged over the entire duration of the experiment. […] Averages of cell populations were calculated from at least 60 cells. […]

Chain of PDGFRα (P16234 24-1089): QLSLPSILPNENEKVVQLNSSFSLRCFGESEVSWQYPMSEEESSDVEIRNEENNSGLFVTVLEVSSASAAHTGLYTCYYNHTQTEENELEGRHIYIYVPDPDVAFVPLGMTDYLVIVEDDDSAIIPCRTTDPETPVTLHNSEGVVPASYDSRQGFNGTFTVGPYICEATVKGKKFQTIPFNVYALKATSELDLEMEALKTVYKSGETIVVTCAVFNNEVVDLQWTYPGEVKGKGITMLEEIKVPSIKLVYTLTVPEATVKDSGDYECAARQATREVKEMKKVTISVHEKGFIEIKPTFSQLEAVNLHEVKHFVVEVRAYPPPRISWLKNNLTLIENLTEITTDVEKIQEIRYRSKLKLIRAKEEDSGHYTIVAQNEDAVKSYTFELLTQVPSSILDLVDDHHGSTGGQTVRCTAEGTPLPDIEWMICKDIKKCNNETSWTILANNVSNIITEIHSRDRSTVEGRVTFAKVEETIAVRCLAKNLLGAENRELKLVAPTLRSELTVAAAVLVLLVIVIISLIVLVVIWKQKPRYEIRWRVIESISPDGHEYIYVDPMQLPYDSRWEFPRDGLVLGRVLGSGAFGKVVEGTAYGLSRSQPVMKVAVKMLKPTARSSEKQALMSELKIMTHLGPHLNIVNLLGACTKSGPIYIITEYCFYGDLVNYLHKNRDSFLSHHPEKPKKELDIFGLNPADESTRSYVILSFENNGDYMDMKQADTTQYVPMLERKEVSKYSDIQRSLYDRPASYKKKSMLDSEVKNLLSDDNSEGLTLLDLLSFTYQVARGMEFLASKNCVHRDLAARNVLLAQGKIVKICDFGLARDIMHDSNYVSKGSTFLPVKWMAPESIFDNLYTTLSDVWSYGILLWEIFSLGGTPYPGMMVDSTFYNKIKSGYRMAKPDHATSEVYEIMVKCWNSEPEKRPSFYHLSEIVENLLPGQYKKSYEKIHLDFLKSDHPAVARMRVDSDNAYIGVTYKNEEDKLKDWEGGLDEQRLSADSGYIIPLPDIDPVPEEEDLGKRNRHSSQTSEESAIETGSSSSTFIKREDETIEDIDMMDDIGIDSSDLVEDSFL

Cc1ccc(NC(=O)c2ccc(CN3CCN(C)CC3)cc2)cc1Nc1nccc(-c2cccnc2)n1 [Imatinib]
effect on PDGF-stimulated migration (speed and alignment) (primary human GB cells [1]; 'responding' sample GB 276, PDGF-stimulated): attenuation of enhancements in speed and alignment
GB growth (GB): inhibit GB growth in vitro and in vivo
interaction with PDGFRα (PDGFRα): known to interact with PDGFRα

PDGF
increase in migration speed upon PDGF stimulation vs unstimulated cells (primary human GB cells [1]; 'responding' GB samples, PDGF 40-50 ng/mL): 15-100%
fraction of cells maintaining slower speeds (≦15 μm/hr) (primary human GB cells [1]; GB 318 cells): roughly 70%
fraction of cells maintaining slower speeds (≦15 μm/hr) (primary human GB cells [1]; GB 630 cells): ~60%
sub-population of aggressive cells accounting for the increased average migration speed (primary human GB cells [1]; in the presence of PDGF): approximately 20%
maximal motility relative to control (primary human GB cells [1]; nanopatterned system, intermediate PDGF concentrations, serum-free medium): up to 2 fold
dose dependence of response in migration speed and persistence (primary human GB cells [1]; nanopatterned system, seven PDGF concentrations): clear graded dose dependence
phosphorylation (activation) of downstream effector Akt (Akt): PDGFdependent
survival of mice (human GB cells; GB 276 neurospheres cultured with PDGF three weeks before intracranial injection, n=4): significantly reduced survival
tumor size, invasiveness and shape (human GB cells; continuous PDGF exposure of tumor xenografts via infusion pump, n=2): larger, more invasion tumors with more eccentric shapes
migratory response to PDGF exposure (primary human GB cells [2]): much more limited responses

laminin: surface-immobilized ECM protein used to coat substrata
response of speed, alignment and persistence to laminin coating concentration (primary human GB cells [1]; GB 318 cells, nanopatterned substrata, optimum at intermediate laminin values): biphasic response
differences in migration at varying laminin densities (primary human GB cells [2]; GB 318 cells): did not observe statistically significant differences
